Results published in patent US12662489B2 (Sitryx Therapeutics Limited, priority 2023, dated 2026).

Legend:
[1] = system: human CD4+ T cells; experiment: Human CD4+ T-cell proliferation assay (CFSE, CD3/28 beads); conditions: read-out: Proliferation IC50
Experimental: Cells were incubated at room temperature for 8 minutes in a rotator in the dark. 13 mL cRPMI was added to each tube and cells were centrifuged at 500×g for 4 minutes at room temperature before pellets were resuspended in 10 mL cRPMI. Cells were counted using the Auto2000 Cellometer and AO/PI viability stain and concentration adjusted to 0.6×10^6 cells/mL in cRPMI. […] Control wells were included for flow cytometry and edge wells were filled with 200 μL 1×dPBS. Cells were incubated at 37° C., 5% CO2 for 2 days before compound treatment. […] Cells were incubated at 37° C., 5% CO2 for a further 2 days prior to flow staining and supernatant harvest.
On the final day plates were centrifuged at 500×g for 4 minutes at room temperature. 125 μL of supernatants were transferred to a V bottom 96 well polystyrene plate and stored at −80° C. Plates were gently vortexed to disrupt the cell pellets before 125 μL 1×PBS was added to each well. Plates were centrifuged at 500×g for 4 minutes at room temperature and supernatants removed from the plates by aspirating. Plates were gently vortexed and 30 μL of live/dead stain (Invitrogen, L34975) in 1×dPBS was added and incubated for 15 minutes in the dark at 4° C. […] 100 μL of flow cytometry buffer was added and plates were centrifuged at 500×g for 4 minutes before supernatants were aspirated from the plates. Wells were resuspended in 200 μL flow cytometry buffer and plates stored at 4° C. before being run on the flow cytometer.
Data was analysed using FlowJo and the compensation matrix applied to all samples. The gates were set using unstained and unstimulated samples.

[2] = target: T1, MTHFD1 recombinant human enzyme (Homo sapiens, UniProt P11586); experiment: MTHFD1 inhibition assay (NAD(P)H-Glo luminescence); conditions: MTHFD1 IC50, recombinant human enzyme 200 nM, NADP, band
T1 sequence (P11586 2-291 limits assumed): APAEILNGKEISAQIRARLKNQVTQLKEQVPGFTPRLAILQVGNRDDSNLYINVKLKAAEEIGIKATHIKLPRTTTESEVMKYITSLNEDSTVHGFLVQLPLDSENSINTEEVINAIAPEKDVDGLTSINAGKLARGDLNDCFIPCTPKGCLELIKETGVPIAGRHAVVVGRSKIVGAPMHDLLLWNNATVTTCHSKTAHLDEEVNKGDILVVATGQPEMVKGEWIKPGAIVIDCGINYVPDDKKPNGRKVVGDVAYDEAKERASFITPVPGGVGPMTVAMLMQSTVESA

[3] = target: T2, MTHFD2 recombinant human enzyme (Homo sapiens, UniProt P13995); experiment: MTHFD2 inhibition assay (NAD(P)H-Glo luminescence); conditions: for MTHFD1/MTHFD2 IC50 ratio: selectivity of MTHFD2 inhibition over MTHFD1, band
T2 sequence (P13995 36-350): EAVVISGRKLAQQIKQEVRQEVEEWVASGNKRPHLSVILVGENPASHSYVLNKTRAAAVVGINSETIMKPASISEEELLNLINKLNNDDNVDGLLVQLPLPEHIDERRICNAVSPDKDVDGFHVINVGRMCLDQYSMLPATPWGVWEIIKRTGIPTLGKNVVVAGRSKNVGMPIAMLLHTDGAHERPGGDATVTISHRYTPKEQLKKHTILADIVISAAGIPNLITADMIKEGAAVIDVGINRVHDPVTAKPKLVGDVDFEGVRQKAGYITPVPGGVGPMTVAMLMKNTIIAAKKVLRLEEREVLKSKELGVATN

| SMILES | IC50 [2] | IC50 [3] | MTHFD1/MTHFD2 IC50 ratio [3] | IC50 [1] |
| --- | --- | --- | --- | --- |
| COC[C@H]1CN(c2cc(C)c3c4c(c(=O)oc3c2C)CN(C(=O)c2cc(N(C)C)c(C(=O)NS(=O)(=O)N3CC[C@H](F)C3)cc2F)CC4)CCN1C [Example 254, 2-(dimethylamino)-5-fluoro-N-(((S)-3-fluoropyrrolidin-1-yl)sulfonyl)-4-(8-((R)-3-(methoxymethyl)-4-methylpiperazin-1-yl)-7,10-dimethyl-5-oxo-1,3,4,5-tetrahydro-2H-chromeno[3,4-c]pyridine-3-carbonyl)benzamide] | 0.1 to 1 µM | 0.001 to 0.01 µM | J (>30) | 0.01 to 0.03 µM |
| COC[C@H]1CN(c2cc(C)c3c4c(c(=O)oc3c2C)CN(C(=O)c2cc(N(C)C)c(C(=O)NS(=O)(=O)N3CC5CC5C3)cc2F)CC4)CCN1C (stereo partly drawn) [Example 315, N-((3-azabicyclo[3.1.0]hexan-3-yl)sulfonyl)-2-(dimethylamino)-5-fluoro-4-(8-((R)-3-(methoxymethyl)-4-methylpiperazin-1-yl)-7,10-dimethyl-5-oxo-1,3,4,5-tetrahydro-2H-chromeno[3,4-c]pyridine-3-carbonyl)benzamide] | 0.1 to 1 µM | 0.001 to 0.01 µM | J (>30) | 0.001 to 0.01 µM |
| COC[C@H]1CN(c2cc(Cl)c3c4c(c(=O)oc3c2C)CN(C(=O)c2cc(OC)c(C(=O)NS(=O)(=O)N3C5CCC3CC5)cc2F)CC4)CCN1C [Example 324, (R)-N-((7-azabicyclo[2.2.1]heptan-7-yl)sulfonyl)-4-(10-chloro-8-(3-(methoxymethyl)-4-methylpiperazin-1-yl)-7-methyl-5-oxo-1,3,4,5-tetrahydro-2H-chromeno[3,4-c]pyridine-3-carbonyl)-5-fluoro-2-methoxybenzamide] | 0.1 to 1 µM | 0.01 to 0.1 µM | J (>30) | 0.1 to 1 µM |
| COC[C@H]1CN(c2cc(Cl)c3c4c(c(=O)oc3c2C)CN(C(=O)c2cc(N(C)C)c(C(=O)NS(=O)(=O)N3CC5(CCC5)C3)cc2F)CC4)CCN1C [Example 318, (R)-N-((2-azaspiro[3.3]heptan-2-yl)sulfonyl)-4-(10-chloro-8-(3-(methoxymethyl)-4-methylpiperazin-1-yl)-7-methyl-5-oxo-1,3,4,5-tetrahydro-2H-chromeno[3,4-c]pyridine-3-carbonyl)-2-(dimethylamino)-5-fluorobenzamide] | 0.1 to 1 µM | 0.001 to 0.01 µM | J (>30) | 0.01 to 0.03 µM |
| COC[C@H]1CN(c2cc(C)c3c4c(c(=O)oc3c2C)CN(C(=O)c2ccc(C(=O)NS(=O)(=O)N3C5CCC3CC5)c(OC)c2F)CC4)CCN1C [Example 157, (R)-N-((7-azabicyclo[2.2.1]heptan-7-yl)sulfonyl)-3-fluoro-2-methoxy-4-(8-(3-(methoxymethyl)-4-methylpiperazin-1-yl)-7,10-dimethyl-5-oxo-1,3,4,5-tetrahydro-2H-chromeno[3,4-c]pyridine-3-carbonyl)benzamide] | 0.1 to 1 µM | 0.01 to 0.1 µM | H (>9.0 to 30) | 0.03 to 0.1 µM |
| COC[C@H]1CN(c2cc(Cl)c3c4c(c(=O)oc3c2C)CN(C(=O)c2cc(N(C)C)c(C(=O)NS(=O)(=O)N3C5CCC3CC5)cc2F)CC4)CCN1C [Example 316, (R)-N-((7-azabicyclo[2.2.1]heptan-7-yl)sulfonyl)-4-(10-chloro-8-(3-(methoxymethyl)-4-methylpiperazin-1-yl)-7-methyl-5-oxo-1,3,4,5-tetrahydro-2H-chromeno[3,4-c]pyridine-3-carbonyl)-2-(dimethylamino)-5-fluorobenzamide] | 1 to 5 µM | 0.01 to 0.1 µM | J (>30) | 0.03 to 0.1 µM |
| COC[C@H]1CN(c2cc(C)c3c4c(c(=O)oc3c2C)CN(C(=O)c2cc(OC)c(C(=O)NS(=O)(=O)N3CC5CC5C3)cc2F)CC4)CCN1C (stereo partly drawn) [Example 249, N-((3-azabicyclo[3.1.0]hexan-3-yl)sulfonyl)-5-fluoro-2-methoxy-4-(8-((R)-3-(methoxymethyl)-4-methylpiperazin-1-yl)-7,10-dimethyl-5-oxo-1,3,4,5-tetrahydro-2H-chromeno[3,4-c]pyridine-3-carbonyl)benzamide] | 0.1 to 1 µM | 0.001 to 0.01 µM | J (>30) | 0.03 to 0.1 µM |
| COC[C@H]1CN(c2cc(Cl)c3c4c(c(=O)oc3c2C)CN(C(=O)c2cc(N(C)C)c(C(=O)NS(=O)(=O)N3C5CCC3COC5)cc2F)CC4)CCN1C [Example 322, N-((3-oxa-8-azabicyclo[3.2. 1]octan-8-yl)sulfonyl)-4-(10-chloro-8-((R)-3-(methoxymethyl)-4-methylpiperazin-1-yl)-7-methyl-5-oxo-1,3,4,5-tetrahydro-2H-chromeno[3,4-c]pyridine-3-carbonyl)-2-(dimethylamino)-5-fluorobenzamide] | 1 to 5 µM | 0.001 to 0.01 µM | J (>30) | 0.03 to 0.1 µM |

Now from value to compound, other results behind:

| IC50 [2] | IC50 [3] | MTHFD1/MTHFD2 IC50 ratio [3] | SMILES | IC50 [1] |
| --- | --- | --- | --- | --- |
| 0.1 to 1 µM | 0.001 to 0.01 µM | J (>30) | [2H]C([2H])([2H])Oc1cc(C(=O)N2CCc3c(c(=O)oc4c(C)c(N5CCN(C)[C@@H](COC)C5)cc(Cl)c34)C2)c(F)cc1C(=O)NS(=O)(=O)N1CCCC1 [Example 246, (R)-4-(10-chloro-8-(3-(methoxymethyl)-4-methylpiperazin-1-yl)-7-methyl-5-oxo-1,3,4,5-tetrahydro-2H-chromeno[3,4-c]pyridine-3-carbonyl)-5-fluoro-2-(methoxy-d3)-N-(pyrrolidin-1-ylsulfonyl)benzamide] | 0.1 to 1 µM |
| 0.1 to 1 µM | 0.001 to 0.01 µM | J (>30) | COC[C@H]1CN(c2cc(F)c3c4c(c(=O)oc3c2C)CN(C(=O)c2cc(N(C)C)c(C(=O)NS(=O)(=O)N3CCCC3)cc2F)CC4)CCN1C [Example 308, (R)-2-(dimethylamino)-5-fluoro-4-(10-fluoro-8-(3-(methoxymethyl)-4-methylpiperazin-1-yl)-7-methyl-5-oxo-1,3,4,5-tetrahydro-2H-chromeno[3,4-c]pyridine-3-carbonyl)-N-(pyrrolidin-1-ylsulfonyl)benzamide] | 0.001 to 0.01 µM |
| 1 to 5 µM | 0.001 to 0.01 µM | J (>30) | COC[C@H]1CN(c2cc(C)c3c4c(c(=O)oc3c2C)CN(C(=O)c2cc(F)c(C(=O)NS(=O)(=O)N3CCCC3)cc2C)CC4)CCN1C [Example 270, (R)-2-fluoro-4-(8-(3-(methoxymethyl)-4-methylpiperazin-1-yl)-7,10-dimethyl-5-oxo-1,3,4,5-tetrahydro-2H-chromeno[3,4-c]pyridine-3-carbonyl)-5-methyl-N-(pyrrolidin-1-ylsulfonyl)benzamide] | 1 to 5 µM |
| 1 to 5 µM | 0.01 to 0.1 µM | J (>30) | COC[C@H]1CN(c2cc(C)c3c4c(c(=O)oc3c2C)CN(C(=O)c2ccc(C(=O)NS(=O)(=O)N3CCCC3)cc2)CC4)CCN1C [Example 195, (R)-4-(8-(3-(methoxymethyl)-4-methylpiperazin-1-yl)-7,10-dimethyl-5-oxo-1,3,4,5-tetrahydro-2H-chromeno[3,4-c]pyridine-3-carbonyl)-N-(pyrrolidin-1-ylsulfonyl)benzamide] | 1 to 5 µM |
| 0.1 to 1 µM | 0.01 to 0.1 µM | H (>9.0 to 30) | COC[C@H]1CN(c2cc(C)c3c4c(c(=O)oc3c2C)CN(C(=O)c2cc(N(C)C)c(C(=O)NS(=O)(=O)N3CCC[C@H](OC)C3)cc2F)CC4)CCN1C [Example 281, 2-(dimethylamino)-5-fluoro-4-(8-((R)-3-(methoxymethyl)-4-methylpiperazin-1-yl)-7,10-dimethyl-5-oxo-1,3,4,5-tetrahydro-2H-chromeno[3,4-c]pyridine-3-carbonyl)-N-(((S)-3-methoxypiperidin-1-yl)sulfonyl)benzamide] | 0.001 to 0.01 µM |
